Assays:
human 5-HT7R = biological target: T1, human 5-HT7R (Homo sapiens, UniProt P34969); test: Radioligand binding assay, 5-HT7R ([3H]-5-CT)
T1 construct: expressed in transfected cells; host or cells: HEK293
Description: (§1) Affinity for serotonin 5-HT2A, 5-HT7 and dopamine D2 receptors (D2R) as protein off-targets was evaluated in the radioligand binding assays. In CHO-K1 cells, it was stably expressed human 5-HT2AR, whereas human 5-HT7R and D2R were stably expressed in HEK293 cells. […] A particularly weak affinity towards this receptor was shown through compounds of series 1 (compounds 1–7) and series 2 (compounds 8–13). […]. Radioligand binding assays were used to determine the affinity of the synthesized compounds for human serotonin 5-HT6R, 5-HT2AR, 5-HT7R and dopamine D2R, which were stably expressed in HEK293 cells or CHOk1 cells (5-HT2AR). This was done as described previously.

HepG2 cells = test: Hepatotoxicity, MTS assay on HepG2 cells; format: cell-based, human
Description: Some substances can lead to liver damage. To eliminate this risk, hepatotoxicity tests are carried out as early as the pre-clinical development phase. One of the methods commonly used to assess the adverse effect of tested compounds on cell viability is the MTT assay, and the most popular cell lines are HepG2 and HepaRG (the human hepatocellular carcinoma cells). To evaluate the toxic effect of compound 3, the MTS assay (one-step MTT assay variant) was performed on the HepG2 cells. HepG2 cells were incubated with increasing concentrations (0.78–50 µM) of compound 3 for 48 h. After that time, the MTS reagent was added and incubated for 1 h. Next the absorbance was read at 490 nm.
The hepatoma cell line HepG2 (ATCC® HB-8065TM) was used to assess the hepatotoxicity of the compounds according to previously described protocols. The CellTiter 96® AQueous Non-Radioactive Cell Proliferation Assay was purchased from Promega (Madison, WI, USA). Compound 3 was tested in two independent experiments in triplicate at seven concentrations (0.78, 1.56, 3.125, 6.25, 12.5, 25 and 50 µM) for […].

human 5-HT2AR = biological target: T2, human 5-HT2AR (Homo sapiens, UniProt P28223); test: Radioligand binding assay, 5-HT2AR ([3H]-ketanserin); conditions: CHO-K1 cells stably expressing human 5-HT2AR
T2 construct: expressed in transfected cells; host or cells: CHO-K1
T2 sequence (P28223 whole entry): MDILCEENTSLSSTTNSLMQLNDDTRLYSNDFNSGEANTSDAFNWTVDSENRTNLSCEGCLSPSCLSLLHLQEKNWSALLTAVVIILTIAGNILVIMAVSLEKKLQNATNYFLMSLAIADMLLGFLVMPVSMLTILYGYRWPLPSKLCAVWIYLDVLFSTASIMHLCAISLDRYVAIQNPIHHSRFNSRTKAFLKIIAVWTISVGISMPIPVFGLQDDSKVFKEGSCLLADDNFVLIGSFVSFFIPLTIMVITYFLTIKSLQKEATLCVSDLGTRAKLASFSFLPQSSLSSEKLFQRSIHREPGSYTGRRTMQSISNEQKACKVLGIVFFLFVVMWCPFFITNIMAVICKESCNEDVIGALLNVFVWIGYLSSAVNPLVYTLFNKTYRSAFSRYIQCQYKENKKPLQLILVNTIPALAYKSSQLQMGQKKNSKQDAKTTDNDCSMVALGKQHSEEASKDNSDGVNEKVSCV
Description: as §1

human 5-HT6R = biological target: T3, human 5-HT6R (Homo sapiens, UniProt P50406); test: Radioligand binding assay, 5-HT6R ([3H]-LSD); conditions: [3H]-LSD; HEK293 cells stably expressing human 5-HT6R; average of at least two independent experiments
T3 construct: expressed in transfected cells; host or cells: HEK293
T3 sequence (P50406 whole entry): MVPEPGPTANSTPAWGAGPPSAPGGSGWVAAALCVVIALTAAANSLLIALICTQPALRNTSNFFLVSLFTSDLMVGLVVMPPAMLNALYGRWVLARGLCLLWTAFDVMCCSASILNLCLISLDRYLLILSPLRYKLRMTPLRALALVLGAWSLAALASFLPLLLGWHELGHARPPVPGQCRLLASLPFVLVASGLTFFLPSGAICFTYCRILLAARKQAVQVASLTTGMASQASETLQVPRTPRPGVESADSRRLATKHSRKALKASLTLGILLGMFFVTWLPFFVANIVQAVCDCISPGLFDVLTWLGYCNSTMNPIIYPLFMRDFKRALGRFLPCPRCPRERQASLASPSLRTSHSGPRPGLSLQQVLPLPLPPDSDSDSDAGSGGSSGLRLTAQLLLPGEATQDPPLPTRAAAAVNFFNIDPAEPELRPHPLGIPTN
Description: The affinity of compounds (1–25) for 5-HT6R was evaluated in the radioligand binding assay in HEK293 cells stably expressing human 5-HT6R. [^3H]-LSD as a radioligand was used. […] All results are collected in Table 1, Table 2 and Table 3.
Radioligand binding assays were used to determine the affinity of the synthesized compounds for human serotonin 5-HT6R, 5-HT2AR, 5-HT7R and dopamine D2R, which were stably expressed in HEK293 cells or CHOk1 cells (5-HT2AR). This was done as described previously.

human D2R = biological target: T4, human D2R (Homo sapiens, UniProt P14416); test: Radioligand binding assay, D2R ([3H]-raclopride); conditions: HEK293 cells stably expressing human D2R
T4 construct: expressed in transfected cells; host or cells: HEK293
T4 sequence (P14416 whole entry): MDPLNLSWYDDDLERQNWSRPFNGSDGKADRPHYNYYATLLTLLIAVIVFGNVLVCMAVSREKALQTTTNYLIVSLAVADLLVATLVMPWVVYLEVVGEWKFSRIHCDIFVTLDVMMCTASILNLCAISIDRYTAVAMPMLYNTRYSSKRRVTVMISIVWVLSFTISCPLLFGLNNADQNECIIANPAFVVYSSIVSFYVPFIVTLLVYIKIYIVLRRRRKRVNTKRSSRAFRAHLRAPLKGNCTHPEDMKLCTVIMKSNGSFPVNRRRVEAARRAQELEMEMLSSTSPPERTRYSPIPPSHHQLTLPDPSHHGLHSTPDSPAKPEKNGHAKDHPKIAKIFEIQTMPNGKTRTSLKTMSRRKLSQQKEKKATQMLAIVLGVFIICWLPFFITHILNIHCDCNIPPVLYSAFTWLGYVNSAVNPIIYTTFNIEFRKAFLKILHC
Description: as §1

[1] = PAMPA assay (BBB penetration, passive transport); format: in vitro ADME; conditions: study a
Source text: This test is a very popular method for assessing BBB penetration via passive transport.

T1 sequence (P34969 whole entry): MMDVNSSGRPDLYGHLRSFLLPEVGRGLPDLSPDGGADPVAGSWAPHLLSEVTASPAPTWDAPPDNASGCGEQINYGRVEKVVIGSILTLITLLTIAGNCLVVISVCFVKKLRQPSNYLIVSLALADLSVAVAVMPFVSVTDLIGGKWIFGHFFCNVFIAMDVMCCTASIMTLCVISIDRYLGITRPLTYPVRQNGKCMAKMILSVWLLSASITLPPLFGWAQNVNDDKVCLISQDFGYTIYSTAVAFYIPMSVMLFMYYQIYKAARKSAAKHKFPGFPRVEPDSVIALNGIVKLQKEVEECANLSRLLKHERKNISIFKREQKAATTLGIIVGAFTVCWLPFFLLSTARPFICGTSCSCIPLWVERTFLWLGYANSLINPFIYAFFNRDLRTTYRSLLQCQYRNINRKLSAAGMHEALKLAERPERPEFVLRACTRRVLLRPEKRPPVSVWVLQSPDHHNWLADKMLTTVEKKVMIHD

CN1CCN(c2nc(N)nc(COc3ccccc3C(C)(C)C)n2)CC1 [Compound 3, 4-((2-(tert-Butyl)phenoxy)metyl)-6-(4-methylpiperazin-1-yl)-1,3,5-triazin-2-amine]
Ki (human 5-HT7R; HEK293 cells stably expressing human 5-HT7R): 6.34 µM | Ki (human 5-HT7R; compound 3 and its salts): 6.34 µM | hepatotoxicity (conclusion in words) (HepG2 cells; HepG2, MTS assay): moderate hepatotoxicity | IC50 (HepG2 cells; Homo sapiens, HepG2, MTS assay, 0.78–50 µM, 48 h incubation (72 h elsewhere in the source), read-out: IC50 (HepG2 cells' viability)): 46.6 µM | Ki (human 5-HT2AR): 2.18 µM | Ki (human 5-HT6R): 0.013 µM | melting point: 107 to 109 °C | Ki (human D2R): 1.62 µM | Pe ± SD [1]: 4.7 ×10⁻⁶ cm/s | Papp ([1]; read-out: Pe ± SD): 4.7 ± 0.2 ×10⁻⁶ cm/s

Reference: PMC9919591, “New Triazine Derivatives as Serotonin 5-HT6 Receptor Ligands” (Molecules, 2023)
